Experimental data as given in EP4585599A1, “NITROGEN-CONTAINING FUSED RING COMPOUND, INTERMEDIATE THEREOF, PREPARATION METHOD THEREFOR AND USE THEREOF” (Hangzhou Synrx Therapeutics Biomedical Technology Co., Ltd., priority 2022, dated 2024).
Several values for one entry are separate records, joined by “and”; a condition that tells them apart may be missing. Equal entries are not always repeated. Where two headings read alike, the source gives them in different places.

How the values were obtained:
[1] = biological target: T1, helicase domain of the Pol θ protein (Homo sapiens, UniProt O75417); experiment: Biochemical Activity Assay (ADP Glo Assay) of Pol θ inhibitor, ATPase activity
T1 construct: The helicase domain of the Pol θ protein was purified from insect protein expression system; made in house; host or cells: insect protein expression system
T1 sequence (O75417 102-554 limits assumed): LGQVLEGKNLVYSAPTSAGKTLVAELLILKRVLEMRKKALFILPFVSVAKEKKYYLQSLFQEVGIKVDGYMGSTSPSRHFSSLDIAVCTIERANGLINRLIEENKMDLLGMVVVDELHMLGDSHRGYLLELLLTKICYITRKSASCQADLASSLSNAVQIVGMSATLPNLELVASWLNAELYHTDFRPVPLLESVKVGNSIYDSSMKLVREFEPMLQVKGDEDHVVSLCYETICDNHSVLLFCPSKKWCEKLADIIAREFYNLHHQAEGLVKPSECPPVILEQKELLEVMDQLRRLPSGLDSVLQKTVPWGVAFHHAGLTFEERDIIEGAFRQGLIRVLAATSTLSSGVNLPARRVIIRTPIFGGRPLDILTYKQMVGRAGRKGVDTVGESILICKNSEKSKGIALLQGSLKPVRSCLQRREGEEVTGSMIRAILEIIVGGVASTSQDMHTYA

cells = conditions: Homo sapiens, DLD-1, 240 h
[2] = ADP-Glo assay, ATPase activity of Pol θ helicase domain, ssDNA substrate, read-out: Biochemical assay IC50
[3] = ADP-Glo, ssDNA substrate, 60 min at room temperature, read-out: Biochemical assay IC50
[4] = read-out: Cell viability assay IC50 (nM), CTG assay, CellTiter Glo, read on Day 10, cell line not given
[5] = read-out: Cell viability assay IC50 (nM), CTG on Day 10, cell line not given (method: DLD1 and DLD1^-/- cells)
[6] = read-out: Biochemical assay IC50

Row | Compound | IC50 [1, 2] [nM] | IC50 [1, 3] [nM] | IC50 (cells; [4]) [nM] | IC50 (cells; [5]) [nM] | also measured
1 | COc1ccccc1-c1cnncc1C(=O)Nc1nc2ccc(-c3ccn[nH]3)nc2s1 [Comparative Example 2, reference compound] | 307 | – | – | – | –
2 | COc1cnc(Cl)cc1-c1cc(C)ncc1C(=O)Nc1nc2ccc(C3=CCC(O)CC3)nc2s1 (stereo not drawn) [Example 1, 2'-chloro-N-(5-(4-hydroxycyclohex-1-en-1-yl)thiazol[5,4-b]pyridin-2-yl)-5'-methoxy-6-methyl-[4,4'-bipyridine]-3-carboxamide] | – | – | – | – | IC50 ([1]; Biochemical assay IC50 (nM)): < 50 nM and 7.07 nM
3 | COc1cnc(Cl)cc1-c1cc(C)ncc1C(=O)Nc1nc2cc(C3=CCC(O)CC3)cnc2s1 (stereo not drawn) [Example 2] | 118 | 50 to 200 | 3160 | > 1000 | –
4 | COc1cnc(Cl)cc1-c1cc(C)ncc1C(=O)Nc1nc2ncc(C3=CCC(O)CC3)cc2s1 (stereo not drawn) [Example 3] | 2.51 | < 50 | 13.6 | < 100 | –
5 | COc1cnc(Cl)cc1-c1cnccc1C(=O)Nc1nc2ccc(C3=CCC(O)CC3)nc2s1 (stereo not drawn) [Example 4] | 19.1 | < 50 | 736 | 500 to 1000 | –
6 | COc1cccc(F)c1-c1cc(C)ncc1C(=O)Nc1nc2ccc(C3=CCC(O)CC3)nc2s1 (stereo not drawn) [Example 5] | 81.5 | 50 to 200 | 153 | 100 to 500 | –
7 | COc1cnc(Cl)cc1-c1cncnc1C(=O)Nc1nc2ccc(C3=CCC(O)CC3)nc2s1 (stereo not drawn) [Example 6] | 193 | 50 to 200 | 794 | 500 to 1000 | –
8 | Cc1cc(-c2c(F)cccc2OC(F)F)c(C(=O)Nc2nc3ccc(C4=CCC(O)CC4)nc3s2)cn1 (stereo not drawn) [Example 7] | 26.4 | < 50 | 73.6 | < 100 | –
9 | COc1cnc(Cl)c(F)c1-c1cc(C)ncc1C(=O)Nc1nc2ncc(C3=CCC(O)CC3)cc2s1 (stereo not drawn) [Example 8] | 1.09 | < 50 | 24.2 | < 100 | –
10 | COc1cnc(Cl)cc1-c1cc(C)ncc1C(=O)Nc1nc2ccc(C3=CCN(C)CC3)nc2s1 [Example 10] | 33.1 | < 50 | 446 | 100 to 500 | –
11 | COc1cnc(Cl)cc1-c1cc(C)ncc1C(=O)Nc1nc2ncc(C3=CCC(O)CC3)nc2s1 (stereo not drawn) [Example 12] | 2.41 | < 50 | 15.3 | < 100 | –
12 | COc1cnc(Cl)cc1-c1cc(C)ncc1C(=O)Nc1nc2c(F)cc(C3=CCC(O)CC3)cc2s1 (stereo not drawn) [Example 13] | 2.89 | < 50 | 5.84 | < 100 | –
13 | COc1cnc(Cl)cc1-c1cc(C)ncc1C(=O)Nc1nc2ncc(C3=CCOCC3)cc2s1 [Example 14] | 2.74 | < 50 | 31.6 | < 100 | –
14 | COc1cnc(Cl)cc1-c1cc(C)ncc1C(=O)Nc1nc2ccc(C3=CCC(O)CC3)cc2s1 (stereo not drawn) [Example 15] | 3.55 | < 50 | 14.7 | < 100 | –
15 | COc1cnc(Cl)cc1-c1cc(C)ncc1C(=O)Nc1nc2ncc(C3=CCNCC3)cc2s1 [Example 16] | 13.5 | < 50 | 2330 | > 1000 | –
16 | COc1cnc(Cl)c(F)c1-c1cc(C)ncc1C(=O)Nc1nc2ncc(-c3ccn(C)n3)cc2s1 [Example 17] | 8.57 | < 50 | 103 | 100 to 500 | –
17 | COc1cnc(Cl)cc1-c1cc(C)ncc1C(=O)Nc1nc2ncc(-c3cnc4[nH]ccc4c3)cc2s1 [Example 19] | 72.1 | 50 to 200 | 261 | 100 to 500 | –
18 | COc1cnc(Cl)cc1-c1cc(C)ncc1C(=O)Nc1nc2ccc(C3=CCC(O)CC3)c(F)c2s1 (stereo not drawn) [Example 20] | 2.95 | < 50 | 7.64 | < 100 | –
19 | COc1cnc(Cl)cc1-c1cc(C)ncc1C(=O)Nc1nc2ncc(C3=CCC(N)CC3)cc2s1 (stereo not drawn) [Example 21] | 3.48 | < 50 | 76.4 | < 100 | –
20 | COc1cnc(Cl)cc1-c1cc(C)ncc1C(=O)Nc1nc2ccc(C3=CCC(O)CC3)c(C#N)c2s1 (stereo not drawn) [Example 22] | 115 | 50 to 200 | 1580 | > 1000 | –

Row | Compound | IC50 [1, 2] [nM] | IC50 [1, 3] [nM] | IC50 (cells; [4]) [nM] | IC50 (cells; [5]) [nM] | also measured
21 | COc1cnc(Cl)c(F)c1-c1cc(C)ncc1C(=O)Nc1nc2cccnc2s1 [Example 38, 2'-chloro-3'-fluoro-5'-methoxy-6-methyl-N-(thiazol[5,4-b]pyridin-2-yl)-[4,4'-bipyridine]-3-carboxamide] | – | – | – | – | IC50 ([1]; Biochemical assay IC50 (nM)): < 50 nM and 17.3 nM
22 | COc1cnc(Cl)c(F)c1-c1cc(C)ncc1C(=O)Nc1nc2c(s1)CN(CC1CCOC1)CC2 (stereo not drawn) [Example 40, 2'-chloro-3'-fluoro-5'-methoxy-6-methyl-N-(5-((tetrahydrofuran-3-yl)methyl)-4,5,6,7-hexahydrothiazolo[5,4-c]pyridin-2-yl)-[4,4'-bipyridine]-3-carboxamide] | – | – | – | – | IC50 ([1]; Biochemical assay IC50 (nM)): 50 to 200 nM and 14.9 nM
23 | COc1cnc(Cl)cc1-c1cc(C)ncc1C(=O)Nc1nc2ccc(N3CCN(C)CC3)nc2s1 [Example 43, 2'-chloro-5'-methoxy-6-methyl-N-(5-(4-methylpiperazin-1-yl)thiazol[5,4-b]pyridin-2-yl)-[4,4'-bipyridine]-3-carboxamide] | – | – | – | – | IC50 ([1]; Biochemical assay IC50 (nM)): 50 to 200 nM and 51.9 nM
24 | COc1cnc(Cl)cc1-c1cc(C)ncc1C(=O)Nc1nc2ccc(-c3ccc(Cl)cn3)nc2s1 [Example 44, 2'-chloro-N-(5-(5-chloropyridin-2-yl)thiazol[5,4-b]pyridin-2-yl)-5'-methoxy-6-methyl-[4, 4'-bipyridine]-3-carboxamide] | – | – | – | – | IC50 ([1]; Biochemical assay IC50 (nM)): < 50 nM and 5.81 nM
25 | COc1cnc(Cl)cc1-c1cc(C)ncc1C(=O)Nc1nc2c(s1)CN(c1ccc(Cl)cn1)CC2 [Example 92, 2'-chloro-N-(5-(5-chloropyridin-2-yl)-4,5,6,7-tetrahydrothiazol[5,4-c]pyridin-2-)-5'-methoxy-6-methyl-[4,4'-bipyridine]-3-carboxamide] | – | – | – | – | IC50 ([1]; Biochemical assay IC50 (nM)): 50 to 200 nM and 59.9 nM
26 | [2H]C1(O)CCN(c2ccc3nc(NC(=O)c4cnc(C)cc4-c4cc(Cl)ncc4OC)sc3n2)CC1 [Example 112, 2'-chloro-N-(5-(4-hydroxypiperidin-1-yl-4-deuterium)thiazol[5,4-b]pyridin-2-yl)-5'-met hoxy-6-methyl-[4,4'-bipyridine]-3-carboxamide] | – | – | – | – | IC50 ([1]; Biochemical assay IC50 (nM), ADP-Glo assay, ATPase activity of Pol θ helicase domain, ssDNA substrate): 10 nM
27 | COc1cnc(Cl)cc1-c1cc(C)ncc1C(=O)Nc1nc2cnc(C3=CC[C@H](O)CC3)cc2s1 [Example 114, (R)-2'-chloro-N-(6-(4-hydroxycyclohex-1-en-1-yl)thiazolo[4,5-c]pyridin-2-yl)-5'-methoxy-6-methyl-[4.4'-bipyridine]-3-carboxamide] | – | – | – | – | IC50 ([1]; Biochemical assay IC50 (nM)): < 50 nM and 3.98 nM
28 | COc1cnc(Cl)cc1-c1cc(C)ncc1C(=O)Nc1nc2c(C(=O)O)cc(-c3c(C)cnn3C)cc2s1 [Example 164] | 8.32 | – | – | – | –
29 | COc1cnc(Cl)cc1-c1cc(C)ncc1C(=O)Nc1nc2cnc(-c3c(F)cnn3CCO)cc2s1 [Example 168] | – | – | 4.46 | – | –
30 | COc1cnc(C(F)F)cc1-c1cc(C)ncc1C(=O)Nc1nc2cnc(-c3c(F)cnn3C)cc2s1 [Example 173] | 2.93 | – | – | – | –
31 | COc1cnc(C(F)F)cc1-c1cc(C)ncc1C(=O)Nc1nc2cnc(-c3c(C)cnn3C)cc2s1 [Example 174] | 2.93 | – | – | – | –
32 | COc1cnc(Cl)cc1-c1cc(C)ncc1C(=O)Nc1nc2cnc(-c3ncon3)cc2s1 [Example 181, N-(6-(1,2,4-oxadiazol-3-yl)thiazolo[4,5-c]pyridin-2-yl)-2'-chloro-5'-methoxy-6-methyl-[4,4'-bipyridine]-3-carboxamide] | 6.71 | – | – | – | –
33 | COc1cnc(C(F)F)cc1-c1cc(N2CCN(C)C3(CC3)C2=O)ncc1C(=O)Nc1nc2cnc(-c3c(C)nnn3C)cc2s1 [Example 197] | – | – | – | – | IC50 [1, 6]: 8.57 nM
34 | COc1cnc(Cl)cc1-c1cc(C)ncc1C(=O)Nc1nc2cnc(-c3c(C)nnn3C)c(C#N)c2s1 [Example 228, 2'-chloro-N-(7-cyano-6-(1,4-dimethyl-1H-1,2,3-triazol-5-yl)thiazolo[4,5-c]pyridin-2-yl)-5'-methoxy-6-methyl-[4,4'-bipyridine]-3-carboxamide] | 111 | – | – | – | –
35 | COc1cnc(Cl)cc1-c1cc(C)ncc1C(=O)Nc1nc2cnc(-c3c(C)nnn3C)c(OC)c2s1 [Example 229, 2'-chloro-N-(6-(1,4-dimethyl-1H-1,2,3-triazol-5-yl)-7-methoxythiazolo[4,5-c]pyridin-2-yl)-5'-methoxy-6-methyl-[4,4'-bipyridine]-3-carboxamide] | 36.7 | – | – | – | –
36 | [2H]C([2H])([2H])Oc1cnc(Cl)cc1-c1cc(C)ncc1C(=O)Nc1nc2cnc(-c3c(C)nnn3C)c(F)c2s1 [Example 230, 2'-chloro-N-(6-(1,4-dimethyl-1H-1,2,3-triazol-5-yl)-7-fluorothiazolo[4,5-c]pyridin-2-yl)-5'-(methoxy-d3)-6-methyl-[4,4'-bipyridine]-3-carboxamide] | 2.84 | – | – | – | –
37 | [2H]C([2H])([2H])Oc1cnc(Cl)cc1-c1cc(C([2H])([2H])[2H])ncc1C(=O)Nc1nc2cnc(-c3c(C)nnn3C)c(F)c2s1 [Example 231, 2'-chloro-N-(6-(1,4-dimethyl-1H-1,2,3-triazol-5-yl)-7-fluorothiazolo[4,5-c]pyridin-2-yl)-5'-(methoxy-d3)-6-(methyl-d3)-[4,4'-bipyridine]-3-carboxamide] | 3.08 | – | – | – | –
38 | COc1cnc(Cl)cc1-c1cc(C)ncc1C(=O)Nc1nc2nc(F)c(-c3c(C)nnn3C)cc2s1 [Example 232] | – | – | – | – | IC50 [1, 6]: 2.51 nM
39 | COc1cnc(Cl)cc1-c1cc(C)ncc1C(=O)Nc1nc2cnc(-c3c(C)nnn3C)c(C)c2s1 [Example 233, 2'-chloro-N-(6-(1,4-dimethyl-1H-1,2,3-triazol-5-yl)-7-methylthiazolo[4,5-c]pyridin-2-yl) -5'-methoxy-6-methyl-[4,4'-bipyridine]-3-carboxamide] | 8.58 | – | – | – | –
